Series [1] concerns subjects with metabolic syndrome. Briefly: Phase 1b study, Columbia Suicidality Severity Rating Scale (C-SSRS). It is filed as in vivo, human. To be noted: INV-202 group, EOT; 25 mg oral daily for 28 days. The text has this:
A suicide risk assessment will be performed using the C-SSRS questionnaire at screening, Day −1 (if more than 21 days have passed since the screening C-SSRS), Day 29 (+2 days) and at the FU Visit/EOS/ET on Day 35 (+2 days).
This scale will be administered by a member of the medical team, completed on site, and will be on paper. The “Lifetime” C-SSRS questionnaire template will be used at the screening visit and on Day −1 (if applicable), and the “since last visit” C-SSRS questionnaire template will be used on Day 29 (+2 days) and at the FU Visit/EOS/ET. If the Investigator determines that a subject is at risk of suicide or self-harm, he/she must immediately be discontinued from the study and appropriate measures to ensure the subject's safety and obtain mental health evaluation must be implemented. The event should be recorded as either an AE or a SAE, as determined by the Investigator, and reported within 24 hours to the Sponsor.

For series [2] the test system is unchanged. Briefly: Phase 1b study, pharmacodynamic effects of INV-202 over 28 days (weight, waist, lipids, glucose, endocrine and renal markers). It counts as in vivo, human. The method, then: A phase 1b study to examine the pharmacokinetic and pharmacodynamic effects of INV-202 in subjects with metabolic syndrome as defined by hypertriglyceridemia, abdominal obesity, and impaired glucose tolerance over 28 days was performed.
This is single center, Phase 1B, randomized, double-blind, placebo-controlled, 28-day repeat dose study.
The study includes subjects with evidence of metabolic syndrome and glucose intolerance that are randomized 1:1 to receive either INV-202 or placebo. 20 subjects will receive 25 mg of INV-202 and 20 subjects will receive a matching placebo daily for 28 consecutive days, for a total of 40 subjects.
Subjects will receive a daily oral dose of INV-202 25 mg or a matching placebo for 28 consecutive days.
Body measurements performed at screening will include height and weight measurements, waist circumference, as well as BMI calculation. Height will only be measured at screening. Weight and waist circumference will also be measured pre-dose on Days 1, 8, 15, and 22, and on Day 29 (+2 days). BMI will be calculated as needed.
Weight and waist circumference will be measured in triplicate using a standard measuring method. The same scale should be used at all visits for a given subject. The scale should be calibrated according to the manufacturer's recommendation. A medical grade scale for weight should be used.
(§1) The following will be assessed: sodium, potassium, chloride, glucose, blood urea nitrogen, creatinine, creatinine clearance, direct bilirubin, indirect bilirubin, bilirubin total, ALP, AST, ALT, albumin, lactate dehydrogenase, calcium, lipase, amylase, phosphorus, HbA1C, serum ferritin and total protein.
In addition, a lipid profile will also be assessed: total cholesterol, HDL, LDL, VLDL and triglycerides. […]
The following will be assessed only pre-dose on Days 1, 8, 15, and 22, on Day 29 (+2 days), and at the FU Visit/EOS/ET on Day 35 (+2 days): C-peptide, insulin, TSH, and T4.
The OGTT will be performed at screening, on Day −1, and on Day 29 (+2 days). The OGTT will not need to be performed at screening if there is evidence of HbA1C≥5.7% but ≤6.4% obtained within the last 3 months.
For the OGTT performed on Day 29 (+2 days), a 75 g glucose load will be administered with blood draws at 30 minutes, 1 hour, 2 hours and 3 hours post-intake.
The following PD parameters will be evaluated: • 1) 0-3 hour AUC blood glucose level during OGTT • 2) Plasma insulin level—change from baseline to EOS/ET • 3) C-peptide level—change from baseline to EOS/ET • 4) Plasma lipid profile (HDL, LDL, VLDL, triglycerides)—change from baseline to EOS/ET • 5) Adiponectin and leptin—change from baseline to EOS/ET • 6) hs-CRP—change from baseline to EOS/ET • 7) Weight—change from baseline to EOS/ET • 8) Waist circumference—change from baseline to EOT/ET • 9) Appetite and Food Intake questionnaire score—change from baseline to EOT/ET • 10) Urine albumin to creatinine ratio—change from baseline to EOS/ET
All PD analyses will be descriptive only and no formal statistical analysis is planned. Descriptive statistics will be used to describe change from baseline in values including glucose AUC during OGTT, fasting insulin level and C-peptide levels, lipids (e.g., triglycerides, HDL), adiponectin and other biomarkers. Exploratory analysis in PD versus AEs may be performed to evaluate the Exposure-Response.

The test system is the same in series [3]. Kind of series: Phase 1b study, vital signs. It counts as in vivo, human. To be noted: 25 mg oral daily for 28 days. An excerpt:
BP, HR, RR and OT will be measured at screening and pre-dose on Days 1, 8, 15, and 22, on Day 29 (+2 days), and at the FU Visit/EOS/ET on Day 35 (+2 days). Vital signs will be measured in a sitting position (except for safety reasons and when ECG are planned around the same time). When vital signs measurements coincide with a blood draw, they should preferably be performed before the blood collection, whenever possible.

The next series has as its system DIO mouse model. Briefly: Effect on body weight and metabolic parameters in DIO mouse model. It is filed as in vivo. The text has this: The effect of INV-202 on body weight and food consumption was studied in a DIO mouse model.
The test system of series [4] is subjects with metabolic syndrome. Kind of series: Phase 1b study, liver safety (liver chemistry). It is filed as in vivo, human.
Source text: as §1
The hepatic safety of all randomized subjects will be assessed through the use of the following algorithm based on FDA DILI management guidelines (Center for Drug Evaluation and Research (CDER), FDA. Guidance for Industry: Drug-Induced Liver Injury: Premarketing Clinical Evaluation. July 2009).
An increase of serum ALT or AST>3×ULN should be followed by repeat testing within 48 to 72 hours of all four of the usual serum measures (ALT, AST, ALP, and TBL) to confirm the abnormalities and to determine if they are increasing or decreasing. There also should be inquiry made about symptoms.

The conditions of series [5]: background statement, cited from earlier work.
The mark [6] stands for this setting: 25 mg oral daily for 28 days, SD in next cell.
[7] abbreviates: 25 mg oral daily for 28 days, Table 3, SD in next cell.
Where [8] appears, read: 25 mg oral daily for 28 days, endocrine lab data, Table 3.
Setting [9] is: following 28-days of repeat dosing.

SMILES strings stand for the structures.

Take `CC(=O)N/C(N)=N/C(=N\S(=O)(=O)c1ccc(C(F)(F)F)cc1)N1C[C@H](c2ccccc2)C(c2ccc(Cl)cc2)=N1` [INV-202, N-{[(S)-{[3-(4-chlorophenyl)-4-phenyl-4,5-dihydro-1H-pyrazol-1-yl][4-(trifluoromethyl)benzenesulfonamido]methylidene}amino]methanimidoyl}acetamide]: in series [1], the “C-SSRS: Non-specific active suicidal thoughts” value was 0, the “C-SSRS: Suicidal behaviour” value came to 0 and the “C-SSRS: Wished to be dead” value was 0. In series [2] (25 mg oral daily for 28 days), the “BMI, change from baseline” value is −1.20 kg/m^2; the “HDL (%), change from baseline” value stood at 0.13%; the “Triglycerides (%), change from baseline” value was −7.9%. For the same molecule, the “OGTT (0-3 hour AUC blood glucose), change from baseline” value in series [2] (25 mg oral daily for 28 days, 75 g glucose load, SD in next cell) stood at 2.24 mmol·h/L. Also, in series [2] (setting [6]), the “C-peptide, change from baseline” value turned out to be 0.036 nmol/L; the “HDL, change from baseline” value is 0.0015 mmol/L; the “HgbA1C, change from baseline” value is reported as −0.005%; the “Insulin, change from baseline” value was -5.0 pmol/L. Further, in series [2] (setting [6]), the “LDL, change from baseline” value is -0.50 mmol/L; the “Total Chol., change from baseline” value was -0.56 mmol/L; the “Triglycerides, change from baseline” value was -0.179 mmol/L; the “VLDL, change from baseline” value was -0.08 mmol/L. Further, in series [2] (setting [6]), the “Waist, change from baseline” value is −1.91 cm; the “Weight (%), change from baseline” value is on record as −3.33%; the “Weight, change from baseline” value is -3.50 kg; the “hs-CRP, change from baseline” value is -1.6 mg/L. For the same molecule, in series [2] (25 mg oral daily for 28 days, Table 3), the “Leptin (%)” value was −18%. Besides, in series [2] (setting [7]), the Adiponectin is 0.15 mg/L and the Leptin was -2.64 µg/L. In series [2] (setting [8]), this molecule had a T4 of 0.516 pmol/L and a TSH of −0.014 mIU/L. Besides, in series [2] (25 mg oral daily for 28 days, renal lab data, Table 3), the “eGFR (CKD-EPI 2021)” value turned out to be 3.23 mL/min/1.73 m2. Further, the “maximum weight loss by percentage” value in series [2] (after 28 days of treatment, individual patient maximum) turned out to be 6%. The “lowest weight loss by percentage” value in series [2] (after 28 days of treatment, individual patient minimum) worked out at 0.1%. The “average weight loss at first clinic visit” value in series [2] (day 8, statistically significant) is recorded as 1.4%. Besides, the “weight change of individual patients” value in series [2] (every single patient on INV-202) is listed as “lost weight”. For the same molecule, in series [3], the “Diastolic Blood Pressure (DBP), change from baseline” value is listed as −0.25 mmHg; the “Heart Rate, change from baseline” value stood at 2.3 bpm; the “Systolic Blood Pressure (SBP), change from baseline” value is on record as −4.65 mmHg; the “Temp, change from baseline” value was −0.045 °C. In the series on DIO mouse model, the C-peptide levels result is “significant effects in reducing C-peptide levels”, the “glucose AUC in an OGTT test” value is listed as “decreased glucose AUC” and the insulin levels entry was “significant effects in reducing”. For the same molecule, in the series with DIO mouse model (setting [9]), the ALT result is listed as “significantly decreased ALT” and the liver triglyceride result is listed as “significantly decreased”. Moreover, in the series on DIO mouse model (following 10 days of dosing), the body weight result is listed as “dose dependently reduce body weight”. Further, the liver chemistry entry in series [4] (all patients throughout the study) is listed as “within normal limits”. Besides, the “changes for bilirubin (total, direct, indirect) or transaminases (AST and ALT)” value in series [4] (throughout the study) was “no significant changes”.

In the case of `Cc1c(C(=O)NN2CCCCC2)nn(-c2ccc(Cl)cc2Cl)c1-c1ccc(Cl)cc1` [Rimonabant], in series [5], the “efficacy in metabolic syndrome” value is reported as “effective in treating metabolic syndrome”. The side effects entry in series [5] (resulted in withdrawal from the market) was “caused neuropsychiatric (i.e. CNS-related) side effects”.
